From paper PMC10143053, “Probing the Interactions of 31 Mycotoxins with Xanthine Oxidase: Alternariol, Alternariol-3-Sulfate, and α-Zearalenol Are Allosteric Inhibitors of the Enzyme” (Toxins, 2023) come the findings set out here.

pIC50: −log10 of the molar value. Read-outs that look alike come from different tables or passages of the source.

This assay concerns the target T1, xanthine oxidase (Bos taurus, UniProt P80457).
T1 construct: gene XDH
The experiment in a line: biochemical.

T1 sequence (P80457 2-1332): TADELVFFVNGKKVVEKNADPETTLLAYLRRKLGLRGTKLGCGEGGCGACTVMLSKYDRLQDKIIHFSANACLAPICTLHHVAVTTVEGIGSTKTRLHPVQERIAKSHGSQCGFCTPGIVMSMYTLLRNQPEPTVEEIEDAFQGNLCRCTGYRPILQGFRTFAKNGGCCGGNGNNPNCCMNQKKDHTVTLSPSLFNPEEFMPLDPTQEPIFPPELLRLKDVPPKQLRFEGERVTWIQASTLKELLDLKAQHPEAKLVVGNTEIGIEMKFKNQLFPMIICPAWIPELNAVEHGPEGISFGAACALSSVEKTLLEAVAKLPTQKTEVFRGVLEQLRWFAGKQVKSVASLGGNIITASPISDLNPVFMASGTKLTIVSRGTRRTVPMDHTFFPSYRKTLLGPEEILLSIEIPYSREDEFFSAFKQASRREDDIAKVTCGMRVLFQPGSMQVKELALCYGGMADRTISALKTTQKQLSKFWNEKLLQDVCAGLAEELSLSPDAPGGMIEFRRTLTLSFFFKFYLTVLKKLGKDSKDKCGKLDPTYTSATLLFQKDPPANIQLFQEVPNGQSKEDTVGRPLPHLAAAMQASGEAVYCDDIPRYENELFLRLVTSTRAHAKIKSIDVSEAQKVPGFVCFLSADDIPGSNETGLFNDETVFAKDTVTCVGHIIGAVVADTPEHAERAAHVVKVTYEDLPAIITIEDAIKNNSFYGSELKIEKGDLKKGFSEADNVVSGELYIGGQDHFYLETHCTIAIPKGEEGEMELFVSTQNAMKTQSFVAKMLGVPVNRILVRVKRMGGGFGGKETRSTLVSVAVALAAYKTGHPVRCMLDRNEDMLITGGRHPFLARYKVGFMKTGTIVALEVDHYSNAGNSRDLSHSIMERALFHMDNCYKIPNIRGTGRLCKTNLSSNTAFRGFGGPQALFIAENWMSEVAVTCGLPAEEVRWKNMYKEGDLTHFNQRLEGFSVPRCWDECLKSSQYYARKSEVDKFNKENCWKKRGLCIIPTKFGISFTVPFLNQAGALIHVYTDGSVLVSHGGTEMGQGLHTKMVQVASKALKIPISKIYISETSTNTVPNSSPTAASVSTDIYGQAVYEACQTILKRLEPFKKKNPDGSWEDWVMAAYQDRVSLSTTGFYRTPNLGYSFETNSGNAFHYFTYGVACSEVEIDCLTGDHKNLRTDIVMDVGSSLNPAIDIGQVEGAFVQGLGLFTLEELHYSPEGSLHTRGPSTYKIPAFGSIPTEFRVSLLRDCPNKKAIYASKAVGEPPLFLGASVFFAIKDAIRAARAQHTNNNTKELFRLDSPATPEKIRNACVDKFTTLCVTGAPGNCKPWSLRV

Take `Cc1cc(O)cc2oc(=O)c3c(O)cc(O)cc3c12` [AOH, alternariol]: the pIC50 is 4.97.
Take `Cc1cc(OS(=O)(=O)O)cc2oc(=O)c3c(O)cc(O)cc3c12` [AS, alternariol-3-sulfate]: the pIC50 (read-out: IC50) was 4.82.
With `C[C@H]1CCC[C@H](O)CCC/C=C/c2cc(O)cc(O)c2C(=O)O1` [α-ZEL, α-zearalenol], the pIC50 (read-out: IC50) is 4.77.
